Reference: PMC5025780, “Copper(II) ions affect the gating dynamics of the 20S proteasome: a molecular and in cell study” (Scientific Reports, 2016)

Tested on: T1, human 20S proteasome (hCP)
T1 construct: purchased Boston Biochem (Cambridge, MA, USA)
Assay: Native gel electrophoresis of purified hCP (assembly)
Settings: 1 h incubation with 1 and 5 μM Cu(II)
Procedure: Currently, there are only few molecules known to inhibit the ChT-L, C-L, and T-L proteasome activities to the same extent. In principle, these agents are thought to inactivate the CP by upstream events involving protein damage (e.g. oxidation, disassembling of the enzyme into α and β subunits)[29][30] or, as recently reported, to allosteric effects involving proteasome gating. To address these issues, we performed native gel electrophoresis of purified hCP after 1 h incubation with 1 and 5 μM Cu(II) ions (Fig. 1B). […] Thus, we can exclude that Cu(II)-treated hCP could disassemble in α and β subunits. […] To this aim we i) assayed the presence of Cu(I) species in Cu(II)-loaded hCP samples by UV spectroscopy using bathocuproine disulfonic acid sodium salt (BCS) (see Figure S1 of Supporting Information) and ii) monitored the ROS production using fluorescein as a probe whose fluorescence intensity decreases upon reacting with ROS[32]. […]
Proteasome-enriched fractions were subjected to non denaturing native gel electrophoresis, as described elsewhere. […] Peptidolytic activity of proteasome-enriched fractions from cell lysates was evaluated after incubating the gels in a Suc-LLVY-AMC substrate dissolved in 50 mM Tris pH 8.0, 5 mM MgCl2, 1 mM DTT, 1 mM ATP, at 37 °C for 15 min. […] Images of the gels were acquired by Chemidoc (Biorad), and fluorescent bands were quantified by using the Image J software.

[Cl][Cu][Cl] [Cu(II), CuCl2]
hCP assembly by native gel: only a single band is present at 700 kDa
